According to patent publication EP0468441A1, “Use of particular compounds for manufacture of pharmaceutical formulations for metabolic treatments” (Prendergast, Patrick Thomas, priority 1990, dated 1992):

Tests used:
HIV-RF = assay: In-vitro anti-viral test on C81-66 cells infected with HIV-RF (wells positive for HIV p24); assay type: cell-based; conditions: no pretreatment, number of wells positive for HIV p24 out of two replicates
From the text: NOTE: • 1. The results are expressed as the number of wells positive for HIV p24 (out of the two replicates at each multiplicity of infection). Thus, 2 means that both wells contained viral antigen, while 0 means no virus was present. • 2. Pretreatment means that the antibodies to Human Alpha feto protein were present during HIV virus absorption as well as afterwards. • 3. An error in diluting the antibodies was made, so that following the first three concentrations (6,2, and 0.6 percent), an extra 10 fold dilution was made, so that the next dilution was 0.02% rather than 0.2%.

[1] = molecular target: T1, pure rat Alpha Feto Protein (Rattus norvegicus, UniProt P02773); assay: Binding of 3H arachidonic acid (C20:4) to protein, free ligand removed with Lipidex 1000; conditions: 10 µg pure rat AFP; 270.000 DPM 3H C20:4, overnight at 4° C, 10 mM potassium phosphate buffer pH 7.4
T1 sequence (P02773 25-611): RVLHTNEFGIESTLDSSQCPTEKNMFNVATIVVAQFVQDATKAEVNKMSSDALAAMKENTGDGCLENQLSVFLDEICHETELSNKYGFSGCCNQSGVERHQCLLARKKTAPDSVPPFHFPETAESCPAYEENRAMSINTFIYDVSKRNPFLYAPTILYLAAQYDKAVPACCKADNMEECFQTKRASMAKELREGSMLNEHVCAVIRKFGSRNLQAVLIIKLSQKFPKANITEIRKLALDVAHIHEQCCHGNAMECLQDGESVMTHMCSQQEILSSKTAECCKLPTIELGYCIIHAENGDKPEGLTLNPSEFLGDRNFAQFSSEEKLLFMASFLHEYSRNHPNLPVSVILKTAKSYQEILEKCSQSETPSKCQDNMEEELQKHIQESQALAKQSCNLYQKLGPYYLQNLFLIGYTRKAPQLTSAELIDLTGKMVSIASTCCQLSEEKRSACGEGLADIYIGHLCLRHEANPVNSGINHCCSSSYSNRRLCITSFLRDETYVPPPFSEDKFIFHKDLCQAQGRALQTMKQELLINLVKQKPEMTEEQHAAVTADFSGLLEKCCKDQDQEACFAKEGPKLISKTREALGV
Experimental: (§1) Incubation of 50 […] or 100 µg of each peptide or 10 µg of pure rat Alpha Feto Protein with 270.000 DPM ^3H C20:4 (SA 198 Ci/mmol), overnight at 4° C, in 0.5 ml of 10 mM potassium phosphate buffer 10mM pH 7.4.
(§2) Binding of Arachidonic Acid to peptides or protein measured after separation of the free ligand from the bound one using Lipidex 1000 (100 µl Lipidex solution 10 minutes at 4°C. The free ligand is bound to Lipidex 1000, the bound ligand to peptides and proteins remains in the supernatant after centrifugation.

HIV p24 peptide = molecular target: T2, HIV p24 peptide (Human immunodeficiency virus type 1 group M subtype B, UniProt P04591); assay: Binding of 3H arachidonic acid (C20:4) to peptide, free ligand removed with Lipidex 1000; conditions: 270.000 DPM 3H C20:4, overnight at 4° C, 10 mM potassium phosphate buffer pH 7.4
T2 construct: Peptide p24, 1 mg in 200 µl of an aqueous solution of acetic acid
Experimental: (§3) Solubilisation of the peptides: • : Peptide gp120, 1 mg in 180 µl of an aqueous solution of acetic acid and 20 µl acetonitrile • : Peptide p24, 1 mg in 200 µl of an aqueous solution of acetic acid
as §1, §2

HIV gp120 peptide = molecular target: T3, HIV gp120 peptide (Human immunodeficiency virus type 1 group M subtype B, UniProt P04578); assay: as above
T3 construct: Peptide gp120, 1 mg in 180 µl of an aqueous solution of acetic acid and 20 µl acetonitrile
Experimental: as §3, §1, §2

[2] = Solubility of 3H C20:4 before and after addition of peptides or protein; assay type: physicochemical
Experimental: as §1
Solubility of ^3H C20:4 tested before and after addition of peptides or protein: […]

T3 sequence (P04578 247-267): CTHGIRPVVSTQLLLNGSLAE

Cc1cn([C@H]2C[C@H](N=[N+]=[N-])[C@@H](CO)O2)c(=O)[nH]c1=O [AZT]
Virus Replication at a.m.i. (log) of: -1 (HIV-RF; 10 μM): 2 | Virus Replication at a.m.i. (log) of: -2 (HIV-RF; 10 μM): 1 | Virus Replication at a.m.i. (log) of: -3 (HIV-RF; 10 μM): 0 | Virus Replication at a.m.i. (log) of: -4 (HIV-RF; 10 μM): 0 | Virus Replication at a.m.i. (log) of: -5 (HIV-RF; 10 μM): 0 | Virus Replication at a.m.i. (log) of: -6 (HIV-RF; 10 μM): 0 | Virus Replication at a.m.i. (log) of: -1 (HIV-RF; Conc. 0.01 (μM)): 2 | Virus Replication at a.m.i. (log) of: -2 (HIV-RF; Conc. 0.01 (μM)): 2 | Virus Replication at a.m.i. (log) of: -3 (HIV-RF; Conc. 0.01 (μM)): 2 | Virus Replication at a.m.i. (log) of: -4 (HIV-RF; Conc. 0.01 (μM)): 2 | Virus Replication at a.m.i. (log) of: -5 (HIV-RF; Conc. 0.01 (μM)): 1 | Virus Replication at a.m.i. (log) of: -6 (HIV-RF; Conc. 0.01 (μM)): 0 | Virus Replication at a.m.i. (log) of: -1 (HIV-RF; Conc. 0.1 (μM)): 2 | Virus Replication at a.m.i. (log) of: -2 (HIV-RF; Conc. 0.1 (μM)): 2 | Virus Replication at a.m.i. (log) of: -3 (HIV-RF; Conc. 0.1 (μM)): 2 | Virus Replication at a.m.i. (log) of: -4 (HIV-RF; Conc. 0.1 (μM)): 2 | Virus Replication at a.m.i. (log) of: -5 (HIV-RF; Conc. 0.1 (μM)): 0 | Virus Replication at a.m.i. (log) of: -6 (HIV-RF; Conc. 0.1 (μM)): 0 | Virus Replication at a.m.i. (log) of: -1 (HIV-RF; Conc. 1 (μM)): 2 | Virus Replication at a.m.i. (log) of: -2 (HIV-RF; Conc. 1 (μM)): 2 | Virus Replication at a.m.i. (log) of: -3 (HIV-RF; Conc. 1 (μM)): 2 | Virus Replication at a.m.i. (log) of: -4 (HIV-RF; Conc. 1 (μM)): 1 | Virus Replication at a.m.i. (log) of: -5 (HIV-RF; Conc. 1 (μM)): 2 | Virus Replication at a.m.i. (log) of: -6 (HIV-RF; Conc. 1 (μM)): 2

CCCCC/C=C\C/C=C\C/C=C\C/C=C\CCCC(=O)O [^3H C20:4, Arachidonic Acid]
Binding of ^3H C20:4 to peptides or protein after Lipidex 1000 treatment [1]: 14.1 x 10^-6 DPM/mg | Binding of ^3H C20:4 to peptides or protein after Lipidex 1000 treatment (HIV p24 peptide): 0.8 x 10^-6 DPM/mg | Binding of ^3H C20:4 to peptides or protein after Lipidex 1000 treatment (HIV gp120 peptide; 270.000 DPM 3H C20:4, overnight at 4° C, 10 mM potassium phosphate buffer pH 7.4): 1.2 x 10^-6 DPM/mg | binding of C20:4 (HIV gp120 peptide; conclusion in words): clear binding | Solubility of ^3H C20:4 ([2]; in presence of 10 µg pure rat AFP): 100% | Solubility of ^3H C20:4 ([2]; in presence of gp120: 50µg): 65% | Solubility of ^3H C20:4 ([2]; in presence of gp120: 100µg): 90% | Solubility of ^3H C20:4 ([2]; in presence of p24 50µg): 23% | Solubility of ^3H C20:4 ([2]; in presence of p24 100µg): 30% | insolubility of the Arachidonic Acid ([2]; in the presence of p24 peptide, conclusion in words): important insolubility | Solubility of ^3H C20:4 ([2]; without peptide or protein): 70%
